From paper PMC8286599 (Gut Pathogens, 2021)
Where two headings read alike, the source gives them in different places.

Experiments:
[1] = tested on: MDR-S. Typhimurium strains; assay: Stability assay, pH (MIC)
Description: (§4) To explore the utility of phytochemicals as therapeutic molecules and their stability, individual phytochemicals were exposed to cationic salts, and different pH levels followed by analysing their MIC and MBC values against test strains as described earlier.
(§5) Subsequent to exposure to varied conditions, the antimicrobial activity of the phytochemicals was estimated by determining their MIC and MBC values against all the selected MDR strains of EAEC, S. Enteritidis, and S. Typhimurium as described earlier.

[2] = tested on: MDR-S. Enteritidis strains; assay: MIC and MBC by broth microdilution with resazurin; type: cell-based, Salmonella Enteritidis; settings: poultry droppings isolate
Description: (§1) The characterised MDR field strains of EAEC (E1; E2; E3), S. Enteritidis (S1; S2; S3), and S. Typhimurium (ST1; ST2; ST3) maintained in the laboratory repository of Meat Safety Laboratory of ICAR-National Research Centre on Meat, Hyderabad re-validated using PCR assays were used to evaluate the in vitro antibacterial efficacy of phytochemicals. E. coli ATCC 25922 was used as the quality control strain.
(§2) The antimicrobial efficacy of identified phytochemicals against multi-drug resistant EAEC and NTS strains was determined by estimating the minimum inhibitory concentration (MIC) and minimum bactericidal concentrations (MBC).
(§3) Subsequent to the incubation period, resazurin dye (0.015 %) was added to all the wells to determine the dye reduction (pink) and thereby the bacterial inhibition.

[3] = tested on: MDR-S. Typhimurium strains; assay: MIC and MBC by broth microdilution with resazurin; type: cell-based, Salmonella Typhimurium; settings: poultry droppings isolate
Description: as §1, §2, §3

[4] = Haemolytic assay; type: cell-based; settings: read-out: Haemolysis; for hemolysis at 0.5 X MIC: 0.50X MIC
Method: The haemolytic assay of the individual phytochemical was performed by measuring the release of haemoglobin from sheep and human ‘O’ erythrocytes at 540 nm. The percentage of haemolysis was calculated as (Asample – APBS)/ (ATriton−X – APBS) ×100, in which Asample is the absorbance of phytochemical treatment, APBS is the absorbance of untreated control with PBS, and ATriton−X is the absorbance of lysed cells treated with Triton X-100 measured at 540 nm.

[5] = tested on: MDR-EAEC strains; assay: Stability assay, pH (MIC)
Description: as §4, §5

[6] = tested on: MDR-S. Enteritidis strains; assay: Stability assay, pH (MIC)
Description: as §4, §5

[7] = tested on: MDR-EAEC strains; assay: Stability assay, cationic salts (MIC)
Description: as §4, §5

[8] = tested on: MDR-EAEC strains; assay: MIC and MBC by broth microdilution with resazurin; type: cell-based, enteroaggregative Escherichia coli; settings: infant diarrhoea isolate
Description: as §1, §2, §3

[9] = tested on: MDR-S. Enteritidis strains; assay: Stability assay, cationic salts (MIC)
Description: as §4, §5

[10] = tested on: MDR-S. Typhimurium strains; assay: Stability assay, cationic salts (MIC)
Description: as §4, §5

[11] = human 'O' erythrocytes, Human RBCs

O=C/C=C/c1ccccc1 [Cinnamaldehyde, cinnamaldehyde]
MIC at given pH ([1]; pH 4, strain ST1): 0.5 µl/ml
MIC at given pH ([1]; pH 4, strain ST2): 1.0 µl/ml
MIC at given pH ([1]; pH 4, strain ST3): 1.0 µl/ml
MIC at given pH ([1]; pH 6, strain ST1): 0.5 µl/ml
MIC at given pH ([1]; pH 6, strain ST2): 1.0 µl/ml
MIC at given pH ([1]; pH 6, strain ST3): 1.0 µl/ml
MIC at given pH ([1]; pH 8, strain ST1): 0.5 µl/ml
MIC at given pH ([1]; pH 8, strain ST2): 1.0 µl/ml
MIC at given pH ([1]; pH 8, strain ST3): 1.0 µl/ml
MBC ([2]; S. Enteritidis (S1)): 0.50 µl/ml
MIC ([2]; S. Enteritidis (S1)): 0.12 µl/ml
MBC ([2]; S. Enteritidis (S2)): 0.50 µl/ml
MIC ([2]; S. Enteritidis (S2)): 0.12 µl/ml
MBC ([2]; S. Enteritidis (S3)): 0.50 µl/ml
MIC ([2]; S. Enteritidis (S3)): 0.12 µl/ml
MBC ([3]; S. Typhimurium (ST1)): 0.50 µl/ml
MIC ([3]; S. Typhimurium (ST1)): 0.25 µl/ml
MBC ([3]; S. Typhimurium (ST2)): 0.50 µl/ml
MIC ([3]; S. Typhimurium (ST2)): 0.25 µl/ml
MBC ([3]; S. Typhimurium (ST3)): 1.0 µl/ml
MIC ([3]; S. Typhimurium (ST3)): 0.12 µl/ml
hemolysis at 0.25 X MIC [4, 11]: 0.554%
hemolysis at 0.5 X MIC [4, 11]: 0.696%
hemolysis at 1 X MIC [4, 11]: 2.03%
hemolysis at 2 X MIC [4, 11]: 5%
hemolysis at 4 X MIC [4, 11]: 12.8%
hemolysis at 8 X MIC [4, 11]: 19.1%
hemolysis at 0.25 X MIC ([4]; sheep erythrocytes, Sheep RBCs): 0.109%
hemolysis at 0.5 X MIC ([4]; sheep erythrocytes, Sheep RBCs): 0.274%
hemolysis at 1 X MIC ([4]; sheep erythrocytes, Sheep RBCs): 3.61%
hemolysis at 2 X MIC ([4]; sheep erythrocytes, Sheep RBCs): 11.7%
hemolysis at 4 X MIC ([4]; sheep erythrocytes, Sheep RBCs): 12.5%
hemolysis at 8 X MIC ([4]; sheep erythrocytes, Sheep RBCs): 22%
MIC at given pH ([5]; pH 4, strain E1): 0.5 µl/ml
MIC at given pH ([5]; pH 4, strain E2): 0.5 µl/ml
MIC at given pH ([5]; pH 4, strain E3): 0.5 µl/ml
MIC at given pH ([5]; pH 6, strain E1): 0.5 µl/ml
MIC at given pH ([5]; pH 6, strain E2): 0.5 µl/ml
MIC at given pH ([5]; pH 6, strain E3): 0.5 µl/ml
MIC at given pH ([5]; pH 8, strain E1): 0.5 µl/ml
MIC at given pH ([5]; pH 8, strain E2): 0.5 µl/ml
MIC at given pH ([5]; pH 8, strain E3): 0.5 µl/ml
MIC at given pH ([6]; pH 4, strain S1): 0.5 µl/ml
MIC at given pH ([6]; pH 4, strain S2): 0.5 µl/ml
MIC at given pH ([6]; pH 4, strain S3): 0.5 µl/ml
MIC at given pH ([6]; pH 6, strain S1): 0.5 µl/ml
MIC at given pH ([6]; pH 6, strain S2): 0.5 µl/ml
MIC at given pH ([6]; pH 6, strain S3): 0.5 µl/ml
MIC at given pH ([6]; pH 8, strain S1): 0.5 µl/ml
MIC at given pH ([6]; pH 8, strain S2): 0.5 µl/ml
MIC at given pH ([6]; pH 8, strain S3): 1.0 µl/ml
MIC with cationic salt ([7]; 2 mM MgCl2, strain E1): 0.5 µl/ml
MIC with cationic salt ([7]; 2 mM MgCl2, strain E2): 0.5 µl/ml
MIC with cationic salt ([7]; 2 mM MgCl2, strain E3): 0.5 µl/ml
Change of MIC values with cationic salts ([7]; 150 mM NaCl and 2 mM MgCl2, MDR-EAEC strains): remained almost similar
MIC with cationic salt ([7]; 150 mM NaCl, strain E1): 0.5 µl/ml
MIC with cationic salt ([7]; 150 mM NaCl, strain E2): 0.5 µl/ml
MIC with cationic salt ([7]; 150 mM NaCl, strain E3): 0.5 µl/ml
MBC ([8]; EAEC (E1)): 0.50 µl/ml
MIC ([8]; EAEC (E1)): 0.50 µl/ml
MBC ([8]; EAEC (E2)): 1.0 µl/ml
MIC ([8]; EAEC (E2)): 0.50 µl/ml
MBC ([8]; EAEC (E3)): 0.50 µl/ml
MIC ([8]; EAEC (E3)): 0.25 µl/ml
MIC with cationic salt ([9]; 2 mM MgCl2, strain S1): 0.5 µl/ml
MIC with cationic salt ([9]; 2 mM MgCl2, strain S2): 0.5 µl/ml
MIC with cationic salt ([9]; 2 mM MgCl2, strain S3): 0.5 µl/ml
MIC with cationic salt ([9]; 150 mM NaCl, strain S1): 0.5 µl/ml
MIC with cationic salt ([9]; 150 mM NaCl, strain S2): 0.5 µl/ml
MIC with cationic salt ([9]; 150 mM NaCl, strain S3): 0.5 µl/ml
MIC with cationic salt ([10]; 2 mM MgCl2, strain ST1): 0.5 µl/ml
MIC with cationic salt ([10]; 2 mM MgCl2, strain ST2): 0.5 µl/ml
MIC with cationic salt ([10]; 2 mM MgCl2, strain ST3): 1.0 µl/ml
MIC with cationic salt ([10]; 150 mM NaCl, strain ST1): 0.5 µl/ml
MIC with cationic salt ([10]; 150 mM NaCl, strain ST2): 0.5 µl/ml
MIC with cationic salt ([10]; 150 mM NaCl, strain ST3): 1.0 µl/ml
